The nature of the data set: Solubility of abrasive-grain material at normal temperature. The format is physicochemical.
Where [1] appears, read: abrasive-grain material, normal temperature (25° C.).

The structures appear in SMILES notation. Like-named read-outs stand apart in the source and are kept apart here.

The compound `O=S(=O)([O-])[O-].O=S(=O)([O-])[O-].O=S(=O)([O-])[O-].[Ce+3].[Ce+3]` [Example 4, Ce2(SO4)3] yielded a Solubility under setting [1] of 7.59%.

Take `[Cl][Cu][Cl]` [Example 5, CuCl2]: the Solubility under setting [1] stood at 42.8%.

Consider `O=S(=O)([O-])[O-].[Cu+2]` [Example 6, CuSO4], for which the Solubility amounted to 18.2%.

`OC[C@H]1O[C@@](CO)(O[C@H]2O[C@H](CO)[C@@H](O)[C@H](O)[C@H]2O)[C@@H](O)[C@@H]1O` [Example 11, sucrose] displayed a Solubility under setting [1] of 67.0%.

`O=C(O)CC(=O)O` [Example 12, malonic acid] returned a Solubility under setting [1] of 32.2%.
